Measurements: ChEMBL document CHEMBL5634096, “Design, synthesis and bioevaluation of PI3Kα-selective inhibitors as potential colorectal cancer drugs” (Eur J Med Chem, 2023)
Activity calls are given as the source filed them. No cut-off for these calls is given here.

Assays:
[1] = Metabolic stability in Sprague-Dawley rat liver microsomes assessed as half life at 5 ug/ml incubated for 1 hr in presence of NADPH by LC-MS/MS analysis; format: ADME, Microsome; conditions: dose 5 µg/ml
HCT-116 [2] = assay: Induction of apoptosis in human HCT-116 cells assessed as increased total apoptotic cells at 6 uM incubated for 48 hrs by Annexin V-FITC and propidium iodide staining based flow cytometry analysis (reference value: 4.22 %); format: functional
5637 = assay: Antiproliferative activity against human 5637 cells assessed as reduction in cell viability at 10 uM incubated for 24 to 48 hrs by CCK-8 assay; format: functional, cell-based; conditions: time lower […], time upper 48.0 hrs
A549 = assay: Antiproliferative activity against human A549 cells assessed as reduction in cell viability at 10 uM incubated for 24 to 48 hrs by CCK-8 assay; format: functional, cell-based; conditions: time lower […], time upper 48.0 hrs
MDA-MB-231 = assay: Antiproliferative activity against human MDA-MB-231 cells assessed as reduction in cell viability incubated for 24 to 48 hrs by CCK-8 assay; format: functional, cell-based
SW-620 = assay: Antiproliferative activity against human SW-620 cells assessed as reduction in cell viability incubated for 24 to 48 hrs by CCK-8 assay; format: functional, cell-based
HCT-116 [3] = assay: Induction of cell cycle arrest at G1/G0 phase in human HCT-116 cells assessed as decrease in cyclinE1 expression incubated for 48 hrs by Western blotting analysis; format: functional, cell-based; conditions: dose 3-12 µM
HEK-293T = assay: Cytotoxicity against human HEK293T cells assessed as reduction in cell viability at 10 uM incubated for 24 to 48 hrs by CCK-8 assay; format: toxicity, cell-based; conditions: time 24-48 hrs
[4] = system: Receptor-type tyrosine-protein kinase FLT3 (Homo sapiens), P36888 [D835Y]; assay: Inhibition of human FLT3 D835Y mutant at 1 uM
[5] = Metabolic stability in artificial gastrointestinal fluid assessed as compound remaining measured upto 8 hrs by LC-MS/MS analysis; format: ADME
HCT-116 [6] = assay: Induction of cell cycle arrest in human HCT-116 cells assessed as decrease in accumulation of cells at S phase at 3 to 12 uM incubated for 48 hrs by PI staining based flow cytometry analysis (reference value: 46.9 %); format: functional; set-up: scale not given: the % may be the effect or the level left; conditions: dose 3-12 µM
HCT-116 [7] = assay: Antiproliferative activity against human HCT-116 cells assessed as inhibition of PI3K phosphorylation incubated for 48 hrs by Western blotting analysis; format: functional, cell-based; conditions: dose 3-12 µM
A-375 = assay: Antiproliferative activity against human A-375 cells assessed as reduction in cell viability at 10 uM incubated for 24 to 48 hrs by CCK-8 assay; format: functional, cell-based; conditions: time lower […], time upper 48.0 hrs
Cytochrome P450 2D6 = Cytochrome P450 2D6 (Homo sapiens, UniProt P10635); assay: Inhibition of CYP2D6 in human liver microsomes using dextromethorphan as substrate pre-incubated for 30 mins followed by substrate addition and measured after 15 mins in presence of NADPH by LC/MS analysis; format: ADME, Microsome
Sequence of Cytochrome P450 2D6 (P10635 whole entry): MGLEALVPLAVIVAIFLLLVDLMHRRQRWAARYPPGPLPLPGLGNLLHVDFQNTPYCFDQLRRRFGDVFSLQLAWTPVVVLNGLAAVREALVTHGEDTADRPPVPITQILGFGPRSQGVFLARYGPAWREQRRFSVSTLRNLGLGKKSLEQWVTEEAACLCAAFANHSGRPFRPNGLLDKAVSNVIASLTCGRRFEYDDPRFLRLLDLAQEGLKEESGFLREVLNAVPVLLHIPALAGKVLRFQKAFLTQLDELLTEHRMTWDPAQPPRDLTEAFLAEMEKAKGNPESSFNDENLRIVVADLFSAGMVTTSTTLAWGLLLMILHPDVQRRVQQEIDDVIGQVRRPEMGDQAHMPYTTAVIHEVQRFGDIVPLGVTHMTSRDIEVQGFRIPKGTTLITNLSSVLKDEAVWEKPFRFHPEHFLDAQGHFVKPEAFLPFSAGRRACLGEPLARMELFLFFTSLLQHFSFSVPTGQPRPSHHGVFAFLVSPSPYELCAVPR

HCT-116 [8] = assay: Induction of cell cycle arrest at G1/G0 phase in human HCT-116 cells assessed as decrease in cyclinD1 expression incubated for 48 hrs by Western blotting analysis; format: functional, cell-based; conditions: dose 3-12 µM
[9] = molecular target: Phosphatidylinositol 4,5-bisphosphate 3-kinase catalytic subunit beta isoform (Homo sapiens, UniProt P42338); assay: Inhibition of PI3Kbeta (unknown origin) by ADP-Glo luminescent kinase assay
Sequence of Phosphatidylinositol 4,5-bisphosphate 3-kinase catalytic subunit beta isoform (P42338 whole entry, canonical isoform): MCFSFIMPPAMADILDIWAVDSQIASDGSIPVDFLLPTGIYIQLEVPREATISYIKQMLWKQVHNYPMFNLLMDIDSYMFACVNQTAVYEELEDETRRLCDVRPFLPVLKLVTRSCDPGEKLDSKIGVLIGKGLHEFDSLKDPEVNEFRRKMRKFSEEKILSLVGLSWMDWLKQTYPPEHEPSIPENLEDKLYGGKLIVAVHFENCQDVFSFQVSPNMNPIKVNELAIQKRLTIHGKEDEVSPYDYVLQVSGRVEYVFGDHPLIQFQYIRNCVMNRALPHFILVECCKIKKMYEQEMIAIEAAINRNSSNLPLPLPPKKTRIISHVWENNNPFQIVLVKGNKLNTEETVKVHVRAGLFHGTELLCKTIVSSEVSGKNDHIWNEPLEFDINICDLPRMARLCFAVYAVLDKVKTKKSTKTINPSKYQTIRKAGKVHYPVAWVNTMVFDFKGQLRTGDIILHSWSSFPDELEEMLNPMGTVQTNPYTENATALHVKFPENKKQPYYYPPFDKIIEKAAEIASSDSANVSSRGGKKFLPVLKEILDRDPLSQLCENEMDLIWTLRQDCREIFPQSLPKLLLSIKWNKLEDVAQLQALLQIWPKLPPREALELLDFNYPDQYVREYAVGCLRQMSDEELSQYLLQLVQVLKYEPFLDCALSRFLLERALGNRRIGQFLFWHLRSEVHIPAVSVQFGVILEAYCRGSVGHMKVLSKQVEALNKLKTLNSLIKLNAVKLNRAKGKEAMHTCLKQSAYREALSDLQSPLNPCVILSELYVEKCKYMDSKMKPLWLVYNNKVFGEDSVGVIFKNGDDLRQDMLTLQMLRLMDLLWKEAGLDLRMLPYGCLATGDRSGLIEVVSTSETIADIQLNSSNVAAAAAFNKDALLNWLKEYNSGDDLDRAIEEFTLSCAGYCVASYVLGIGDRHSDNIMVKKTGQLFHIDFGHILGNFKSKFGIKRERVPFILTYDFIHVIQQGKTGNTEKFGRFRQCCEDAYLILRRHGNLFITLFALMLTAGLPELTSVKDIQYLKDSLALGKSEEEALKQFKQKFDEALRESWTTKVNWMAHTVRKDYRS

[10] = Cytotoxicity against human MCF-10A cells assessed as reduction in cell viability incubated for 24 to 48 hrs by CCK-8 assay; format: toxicity, cell-based
L02 = assay: Cytotoxicity activity against human L02 cells assessed as reduction in cell viability at 10 uM incubated for 24 to 48 hrs by CCK-8 assay; format: toxicity, cell-based; conditions: l02, 10 µM, time 24-48 hrs
786-0 = assay: Antiproliferative activity against human 786-0 cells assessed as reduction in cell viability at 10 uM incubated for 24 to 48 hrs by CCK-8 assay; format: functional, cell-based; conditions: time lower […], time upper 48.0 hrs
[11] = molecular target: Phosphatidylinositol 4,5-bisphosphate 3-kinase catalytic subunit gamma isoform (Homo sapiens, UniProt P48736); assay: Inhibition of PI3Kgamma (unknown origin) by ADP-Glo luminescent kinase assay
Sequence of Phosphatidylinositol 4,5-bisphosphate 3-kinase catalytic subunit gamma isoform (P48736 whole entry, canonical isoform): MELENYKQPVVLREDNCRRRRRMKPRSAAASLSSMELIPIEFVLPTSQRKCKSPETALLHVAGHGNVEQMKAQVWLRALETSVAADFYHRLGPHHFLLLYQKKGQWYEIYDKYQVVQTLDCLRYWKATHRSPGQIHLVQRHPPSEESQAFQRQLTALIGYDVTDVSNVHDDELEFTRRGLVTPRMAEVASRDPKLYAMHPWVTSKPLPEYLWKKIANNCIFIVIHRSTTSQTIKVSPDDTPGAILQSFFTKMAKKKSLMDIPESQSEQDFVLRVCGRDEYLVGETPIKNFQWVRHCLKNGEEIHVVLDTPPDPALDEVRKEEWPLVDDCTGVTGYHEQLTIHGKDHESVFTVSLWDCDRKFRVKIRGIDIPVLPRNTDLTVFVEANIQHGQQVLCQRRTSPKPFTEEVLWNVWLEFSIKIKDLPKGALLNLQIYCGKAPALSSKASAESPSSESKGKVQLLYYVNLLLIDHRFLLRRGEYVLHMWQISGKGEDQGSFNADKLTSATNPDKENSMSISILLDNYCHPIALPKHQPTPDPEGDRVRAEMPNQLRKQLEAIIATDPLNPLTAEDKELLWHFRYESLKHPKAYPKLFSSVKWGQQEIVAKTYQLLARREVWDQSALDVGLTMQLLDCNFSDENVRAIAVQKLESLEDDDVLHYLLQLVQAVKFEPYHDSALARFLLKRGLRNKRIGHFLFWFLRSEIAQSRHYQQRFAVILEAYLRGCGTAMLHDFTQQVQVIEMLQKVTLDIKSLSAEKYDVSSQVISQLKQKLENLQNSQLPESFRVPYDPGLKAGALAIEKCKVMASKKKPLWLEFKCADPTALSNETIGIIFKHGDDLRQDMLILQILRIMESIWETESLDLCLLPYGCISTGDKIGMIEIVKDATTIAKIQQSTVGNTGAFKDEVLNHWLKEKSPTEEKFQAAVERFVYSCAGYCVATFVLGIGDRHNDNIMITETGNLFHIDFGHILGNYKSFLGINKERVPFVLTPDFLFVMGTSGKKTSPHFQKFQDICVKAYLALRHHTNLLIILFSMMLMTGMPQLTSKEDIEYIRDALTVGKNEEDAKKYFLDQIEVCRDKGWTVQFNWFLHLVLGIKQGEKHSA

MKN-45 = assay: Antiproliferative activity against human MKN-45 cells assessed as reduction in cell viability at 10 uM incubated for 24 to 48 hrs by CCK-8 assay; format: functional, cell-based; conditions: time lower […], time upper 48.0 hrs
[12] = MRT (0 to infinity) in Sprague-Dawley rat at 5 mg/kg, iv measured upto 24 hrs by LC-MS analysis; format: ADME, organism-based; conditions: in vivo
[13] = Cmax in Sprague-Dawley rat at 5 mg/kg, iv measured upto 24 hrs by LC-MS analysis; format: ADME, organism-based; conditions: in vivo
GBC-SD = assay: Antiproliferative activity against human GBC-SD cells assessed as reduction in cell viability at 10 uM incubated for 24 to 48 hrs by CCK-8 assay; format: functional, cell-based; conditions: time lower […], time upper 48.0 hrs
[14] = MRT (0 to t) in Sprague-Dawley rat at 5 mg/kg, iv measured upto 24 hrs by LC-MS analysis; format: ADME, organism-based; conditions: in vivo
CAL-62 = assay: Antiproliferative activity against human CAL-62 cells assessed as reduction in cell viability at 10 uM incubated for 24 to 48 hrs by CCK-8 assay; format: functional, cell-based; conditions: time lower […], time upper 48.0 hrs
PaTu 8988t = assay: Antiproliferative activity against human PaTu 8988t cells assessed as reduction in cell viability at 10 uM incubated for 24 to 48 hrs by CCK-8 assay; format: functional, cell-based; conditions: time lower […], time upper 48.0 hrs
HCT-116 [15] = assay: Induction of cell cycle arrest in human HCT-116 cells assessed as increase in accumulation of cells at G1/G0 phase at 3 to 12 uM incubated for 48 hrs by PI staining based flow cytometry analysis (reference value: 36.6 %); format: functional; conditions: dose 3-12 µM
[16] = Metabolic stability in Sprague-Dawley rat liver microsomes assessed as compound remaining at 5 ug/ml incubated for 1 hr in presence of NADPH by LC-MS/MS analysis; format: ADME, Microsome; conditions: at 5 µg/mL, read-out: Stability
HeLa = assay: Antiproliferative activity against human HeLa cells assessed as reduction in cell viability at 10 uM incubated for 24 to 48 hrs by CCK-8 assay; format: functional, cell-based; conditions: time lower […], time upper 48.0 hrs
HCT-116 [17] = assay: Antiproliferative activity against human HCT-116 cells assessed as inhibition of Akt phosphorylation incubated for 48 hrs by Western blotting analysis; format: functional, cell-based; conditions: dose 3-12 µM
HCT-116 [18] = assay: Antiproliferative activity against human HCT-116 cells assessed as reduction in cell viability incubated for 48 hrs by CCK-8 assay; format: functional, cell-based; conditions: dose 20-80 µM
HOS = assay: Antiproliferative activity against human HOS cells assessed as reduction in cell viability at 10 uM incubated for 24 to 48 hrs by CCK-8 assay; format: functional, cell-based; conditions: time lower […], time upper 48.0 hrs
MCF7 = assay: Antiproliferative activity against human MCF7 cells expressing PIK3CA with E545K mutation assessed as reduction in cell viability incubated for 24 to 48 hrs by CCK-8 assay; format: functional, cell-based
HCT-116 [19] = assay: Inhibition of cell migration human HCT-116 cells incubated for 48 hrs by crystal violet staining based transwell assay; format: functional; conditions: dose 3-12 µM
HCT-116 [20] = assay: Antiproliferative activity against human HCT-116 cells assessed as inhibition of ERK1/2 phosphorylation incubated for 48 hrs by Western blotting analysis; format: functional, cell-based; conditions: dose 3-12 µM
Cytochrome P450 2C19 = Cytochrome P450 2C19 (Homo sapiens, UniProt P33261); assay: Inhibition of CYP2C19 in human liver microsomes using omeprazole as substrate pre-incubated for 30 mins followed by substrate addition and measured after 15 mins in presence of NADPH by LC/MS analysis; format: ADME, Microsome
Sequence of Cytochrome P450 2C19 (P33261 whole entry): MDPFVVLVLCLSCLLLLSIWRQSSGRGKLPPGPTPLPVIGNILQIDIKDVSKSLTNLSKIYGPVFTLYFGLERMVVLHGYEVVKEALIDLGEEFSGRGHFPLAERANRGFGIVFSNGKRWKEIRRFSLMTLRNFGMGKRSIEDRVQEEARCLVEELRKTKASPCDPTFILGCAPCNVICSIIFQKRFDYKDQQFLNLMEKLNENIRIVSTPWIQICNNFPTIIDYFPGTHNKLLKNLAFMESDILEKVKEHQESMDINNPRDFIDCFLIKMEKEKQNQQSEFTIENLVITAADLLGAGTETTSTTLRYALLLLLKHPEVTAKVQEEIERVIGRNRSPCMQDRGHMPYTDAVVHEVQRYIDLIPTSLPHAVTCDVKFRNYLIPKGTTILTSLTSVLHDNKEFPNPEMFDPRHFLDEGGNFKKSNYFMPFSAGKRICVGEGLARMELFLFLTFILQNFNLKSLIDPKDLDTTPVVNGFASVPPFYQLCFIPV

SMILES: Nc1nc2cc(-c3ccc4ncc(N5C[C@@H]6OCCO[C@@H]6C5)nc4c3)ccc2o1
- half-life at 5 ug/ml [1]: 3.61 h
- Activity (HCT-116 [2]): 12.31%
- Activity 5637: Active
- Activity (A549): Active
- IC50 (MDA-MB-231): 13.7 µM
- IC50 (SW-620): 9.85 µM
- Activity (HCT-116 [3]): Dose-Dependent Effect
- Activity (HEK-293T): Toxic
- inhibition [4]: Active
- Stability [5]: Stable
- Activity (HCT-116 [6]): 24.8%
- Activity (HCT-116 [7]): Dose-Dependent Effect
- Activity (A-375): Active
- IC50 (Cytochrome P450 2D6): > 10 µM
- Activity (HCT-116 [8]): Dose-Dependent Effect
- IC50 [9]: 0.45 µM
- IC50 [10]: 54 µM
- Activity (L02): Toxic
- Activity (786-0): Active
- IC50 [11]: 0.2 µM
- Activity (MKN-45): Active
- MRT inf [12]: 1.8 h
- Cmax [13]: 6000 ng/mL
- Activity (GBC-SD): Active
- MRT last at 24 h [14]: 1.7 h
- Activity (CAL-62): Active
- Activity (PaTu 8988t): Active
- Activity (HCT-116 [15]): 43.2%
- remaining at 1 h, 5 ug/ml [16]: 82.3%
- Activity (HeLa): Active
- Activity (HCT-116 [17]): Dose-Dependent Effect
- Activity (HCT-116 [18]): Dose-Dependent Effect
- Activity (HOS): Active
- IC50 (MCF7): 3.32 µM
- inhibition (HCT-116 [19]): Dose-Dependent Effect
- Activity (HCT-116 [20]): Dose-Dependent Effect
- IC50 (Cytochrome P450 2C19): > 10 µM
